Biological target: KRas G12C (Homo sapiens, UniProt P01116, G12C)
Experiment: Cellular inhibition of KRas G12C measured by Phospho-ERK in NCI-H358 cells
Type: cell-based
Settings: pERK(Thr202/Tyr204) normalized with GAPDH, NCI-H358 cells, 3 hours; read-out: IC50
In short: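 Following 8-12 h attachment, NCI-H358 cells got serially diluted compound (0.5% DMSO) for 3 hours. Cells were then fixed, permeabilized with cold methanol, and stained for pERK(Thr202/Tyr204) and GAPDH. Ratios were converted to percent of DMSO control, with IC50 obtained by four-parameter regression.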

KRas G12C, sequence (P01116 1-188 isoform P01116-2 G12C): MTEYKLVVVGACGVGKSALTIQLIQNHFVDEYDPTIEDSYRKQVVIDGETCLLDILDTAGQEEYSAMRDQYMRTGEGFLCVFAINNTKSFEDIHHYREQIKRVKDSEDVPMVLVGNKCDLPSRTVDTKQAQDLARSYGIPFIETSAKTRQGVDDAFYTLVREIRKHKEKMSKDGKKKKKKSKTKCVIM

Row | IC50 [nM] | Structure (SMILES)
1 | 0.1 to 1000 | C=CC(=O)N1CCN(c2nc(OC[C@@H]3CCCN3C)nc3c2CCN(c2cccc4cccn24)C3)C[C@@H]1CC#N [Example 442, 2-((S)-1-acryloyl-4-(7-(indolizin-5-yl)-2-(((S)-1-methylpyrrolidin-2-yl)methoxy)-5,6,7,8-tetrahydropyrido[3,4-d]pyrimidin-4-yl)piperazin-2-yl)acetonitrile]
2 | > 1000 | C=CC(=O)N1CCN(c2nc(OCCCO)nc3c2CCN(c2cc(O)cc4ccccc24)C3)CC1 [Example 184, 1-[4-[7-(3-hydroxy-1-naphthyl)-2-(3-hydroxypropoxy)-6,8-dihydro-5H-pyrido[3,4-d]pyrimidin-4-yl]piperazin-1-yl]prop-2-en-1-one]
3 | 0.1 to 1000 | C=CC(=O)N1CCN(c2nc(O[C@H](C)[C@H]3CCCN3C)nc3c2CCN(c2cc(O)cc4ccccc24)C3)C[C@@H]1CC#N [Example 348, 2-[(2S)-4-[7-(3-hydroxy-1-naphthyl)-2-[(1R)-1-[(2R)-1-methylpyrrolidin-2-yl]ethoxy]-6,8-dihydro-5H-pyrido[3,4-d]pyrimidin-4-yl]-1-prop-2-enoyl-piperazin-2-yl]acetonitrile]
4 | > 1000 | C=CC(=O)N1CCN(c2nc(OC3CCN(C)CC3)nc3c2CCN(c2cc(O)cc4ccccc24)C3)CC1 [Example 22, 1-(4-(7-(3-hydroxynaphthalen-1-yl)-2-((1-methylpiperidin-4-yl)oxy)-5,6,7,8-tetrahydropyrido[3,4-d]pyrimidin-4-yl)piperazin-1-yl)prop-2-en-1-one]
5 | > 1000 | CC(C)=CC(=O)N1CCN(c2nc(OC[C@@H]3CCCN3C)nc3c2CCN(c2cccc4ccccc24)C3)CC1CC#N (stereo partly drawn) [Example 282, 2-(1-(3-methylbut-2-enoyl)-4-(2-(((S)-1-methylpyrrolidin-2-yl)methoxy)-7-(naphthalen-1-yl)-5,6,7,8-tetrahydropyrido[3,4-d]pyrimidin-4-yl)piperazin-2-yl)acetonitrile]
6 | 0.1 to 1000 | C=CC(=O)N1CCN(c2nc(OC[C@@H]3CCCN3C)nc3c2CCN(c2cc(O)cc4ccccc24)C3)C(CO)C1 (stereo partly drawn) [Example 169, 1-[3-(hydroxymethyl)-4-[7-(3-hydroxy-1-naphthyl)-2-[[(2S)-1-methylpyrrolidin-2-yl]methoxy]-6,8-dihydro-5H-pyrido [3,4-d]pyrimidin-4-yl]piperazin-1-yl]prop-2-en-1-one]
7 | 0.1 to 1000 | C=CC(=O)N1CCN(c2nc(OC[C@@H]3CCCN3C)nc3c2CCN(c2cccc4cc(F)ccc24)C3)CC1CC#N (stereo partly drawn) [Example 259, 2-[4-[7-(6-fluoro-1-naphthyl)-2-[[(2S)-1-methylpyrrolidin-2-yl]methoxy]-6,8-dihydro-5H-pyrido[3,4-d]pyrimidin-4-yl]-1-prop-2-enoyl-piperazin-2-yl]acetonitrile]
8 | > 1000 | C=CC(=O)N1CCN(c2nc(NC3CCN(C4CC4)CC3)nc3c2CCN(c2cc(O)cc4ccccc24)C3)CC1 [Example 204, 1-(4-(2-((1-cyclopropylpiperidin-4-yl)amino)-7-(3-hydroxynaphthalen-1-yl)-5,6,7,8-tetrahydropyrido[3,4-d]pyrimidin-4-yl)piperazin-1-yl)prop-2-en-1-one]
9 | 0.1 to 1000 | C=CC(=O)N1CCN(c2nc(OCC3CN(C)CCO3)nc3c2CCN(c2cc(O)cc4ccccc24)C3)CC1 (centres unmarked) [Example 193, 1-(4-(7-(3-hydroxynaphthalen-1-yl)-2-((4-methylmorpholin-2-yl)methoxy)-5,6,7,8-tetrahydropyrido[3,4-d]pyrimidin-4-yl)piperazin-1-yl)prop-2-en-1-one]
10 | 0.1 to 1000 | CN(C)C/C=C/C(=O)N1CCN(c2nc(OC[C@H]3CCCN3C)nc3c2CCN(c2cccc(Cl)c2C(F)(F)F)C3)C[C@@H]1CC#N [Example 423, 2-((S)-4-(7-(3-chloro-2-(trifluoromethyl)phenyl)-2-(((R)-1-methylpyrrolidin-2-yl)methoxy)-5,6,7,8-tetrahydropyrido[3,4-d]pyrimidin-4-yl)-1-((E)-4-(dimethylamino)but-2-enoyl)piperazin-2-yl)acetonitrile]
11 | > 1000 | C=CC(=O)N1CCN(c2nc(OCCCN3CCOCC3)nc3c2CCN(c2cc(O)cc(C)c2C)C3)CC1 [Example 213, 1-(4-(7-(5-hydroxy-2,3-dimethylphenyl)-2-(3-morpholinopropoxy)-5,6,7,8-tetrahydropyrido[3,4-d]pyrimidin-4-yl)piperazin-1-yl)prop-2-en-1-one]
12 | 0.1 to 1000 | C=CC(=O)N1CCN(c2nc(OC[C@@H]3CCCN3C)nc3c2CCN(c2cccc(F)c2C(F)(F)F)C3)CC1CC#N (some centres unmarked) [Example 230]
13 | > 1000 | C=C(C)C(=O)N1CCN(c2nc(OC[C@@H]3CCCN3C)nc3c2CCN(c2cccc4ccccc24)C3)CC1CC#N (stereo partly drawn) [Example 261, 2-[1-(2-methylprop-2-enoyl)-4-[2-[[(2S)-1-methylpyrrolidin-2-yl]methoxy]-7-(1-naphthyl)-6,8-dihydro-5H-pyrido[3,4-d]pyrimidin-4-yl]piperazin-2-yl]acetonitrile]
14 | 0.1 to 1000 | C=CC(=O)N1CCN(c2nc(OC[C@@H]3CCCN3CC)nc3c2CCN(c2cccc4ccccc24)C3)C[C@@H]1CC#N [Example 400, 2-((S)-1-acryloyl-4-(2-(((S)-1-ethylpyrrolidin-2-yl)methoxy)-7-(naphthalen-1-yl)-5,6,7,8-tetrahydropyrido[3,4-d]pyrimidin-4-yl)piperazin-2-yl)acetonitrile]
15 | 0.1 to 1000 | C=CC(=O)N1CCN(c2nc(OCC(C)(C)N(C)C)nc3c2CCN(c2cccc4ccccc24)C3)CC1CC#N (centres unmarked) [Example 397, 2-(1-acryloyl-4-(2-(2-(dimethylamino)-2-methylpropoxy)-7-(naphthalen-1-yl)-5,6,7,8-tetrahydropyrido[3,4-d]pyrimidin-4-yl)piperazin-2-yl)acetonitrile]
16 | 0.1 to 1000 | C=C(F)C(=O)N1CCN(c2nc(OC[C@@H]3C[C@H](C)CN3C)nc3c2CCN(c2cccc4cccc(C)c24)C3)C[C@@H]1CC#N [Example 616, 2-[(2S)-4-[2-[[(2S,4S)-1,4-dimethylpyrrolidin-2-yl]methoxy]-7-(8-methyl-1-naphthyl)-6,8-dihydro-5H-pyrido[3,4-d]pyrimidin-4-yl]-1-(2-fluoroprop-2-enoyl)piperazin-2-yl]acetonitrile]
17 | > 1000 | C=CC(=O)N1CCN(c2nc(O[C@H](C)CN(C)C)nc3c2CCN(c2c(O)ccc(C)c2F)C3)CC1 [Example 84, (R)-1-(4-(2-((1-(dimethylamino)propan-2-yl)oxy)-7-(2-fluoro-6-hydroxy-3-methylphenyl)-5,6,7,8-tetrahydropyrido[3,4-d]pyrimidin-4-yl)piperazin-1-yl)prop-2-en-1-one]
18 | > 1000 | CC#CC(=O)N1CCN(c2nc(OC[C@@H]3CCCN3C)nc3c2CCN(c2cccc(C)c2C)C3)C[C@@H]1CC#N [Example 389, 2-((S)-1-(but-2-ynoyl)-4-(7-(2,3-dimethylphenyl)-2-(((S)-1-methylpyrrolidin-2-yl)methoxy)-5,6,7,8-tetrahydropyrido[3,4-d]pyrimidin-4-yl)piperazin-2-yl)acetonitrile]
19 | 0.1 to 1000 | C=CC(=O)N1CCN(c2nc(OC[C@@H]3CN(C)CCN3)nc3c2CCN(c2cccc4ccccc24)C3)CC1CC#N (stereo partly drawn) [Example 223, 2-(1-acryloyl-4-(2-(((S)-4-methylpiperazin-2-yl)methoxy)-7-(naphthalen-1-yl)-5,6,7,8-tetrahydropyrido[3,4-d]pyrimidin-4-yl)piperazin-2-yl)acetonitrile]
20 | > 1000 | C=CC(=O)N1CCN(c2nc(OC[C@@H]3CCCN3C)nc3c2CCN(c2ccnc4ccccc24)C3)CC1CC#N (stereo partly drawn) [Example 295, 2-[4-[2-[[(2S)-1-methylpyrrolidin-2-yl]methoxy]-7-(4-quinolyl)-6,8-dihydro-5H-pyrido[3,4-d]pyrimidin-4-yl]-1-prop-2-enoyl-piperazin-2-yl]acetonitrile]
21 | > 1000 | C=CC(=O)N1CCN(c2nc(O[C@H](C)CN(C)C)nc3c2CCN(c2cccc4ccccc24)C3)CC1 [Example 68, (R)-1-(4-(2-((1-(dimethylamino)propan-2-yl)oxy)-7-(naphthalen-1-yl)-5,6,7,8-tetrahydropyrido[3,4-d]pyrimidin-4-yl)piperazin-1-yl)prop-2-en-1-one]
22 | > 1000 | C=CC(=O)N1CCN(c2nc(OCCCN3CCOCC3)nc3c2CCN(c2cc(O)ccc2OC(C)C)C3)CC1 [Example 96, 1-(4-(7-(5-hydroxy-2-isopropoxyphenyl)-2-(3-morpholinopropoxy)-5,6,7,8-tetrahydropyrido[3,4-d]pyrimidin-4-yl)piperazin-1-yl)prop-2-en-1-one]
23 | 0.1 to 1000 | C=CC(=O)N1CCN(c2nc(O[C@H](C)CN3CCCC3)nc3c2CCN(c2cc(O)cc4ccccc24)C3)CC1 [Example 120, (R)-1-(4-(7-(3-hydroxynaphthalen-1-yl)-2-((1-(pyrrolidin-1-yl)propan-2-yl)oxy)-5,6,7,8-tetrahydropyrido[3,4-d]pyrimidin-4-yl)piperazin-1-yl)prop-2-en-1-one]
24 | 0.1 to 1000 | C=CC(=O)N1CCN(c2nc(OC[C@@H]3CC(F)(F)CN3C)nc3c2CCN(c2cccc4cccc(Cl)c24)C3)C[C@@H]1CC#N [Example 366, 2-[(2S)-4-[7-(8-chloro-1-naphthyl)-2-[[(2S)-4,4-difluoro-1-methyl-pyrrolidin-2-yl]methoxy]-6,8-dihydro-5H-pyrido[3,4-d]pyrimidin-4-yl]-1-prop-2-enoyl-piperazin-2-yl]acetonitrile]
25 | 0.1 to 1000 | C=CC(=O)N1CCN(c2nc(OC[C@@H]3COCCN3C)nc3c2CCN(c2cccc4ccccc24)C3)CC1CC#N (stereo partly drawn) [Example 445, 2-(1-Acryloyl-4-(2-(((S)-4-methylmorpholin-3-yl)methoxy)-7-(naphthalen-1-yl)-5,6,7,8-tetrahydropyrido[3,4-d]pyrimidin-4-yl)piperazin-2-yl)acetonitrile]
26 | 0.1 to 1000 | C=CC(=O)N1CCN(c2nc(OC[C@@H]3CCCN3C)nc3c2CCN(c2cccc4c(F)cccc24)C3)CC1CC#N (stereo partly drawn) [Example 254, 2-[4-[7-(5-fluoro-1-naphthyl)-2-[[(2S)-1-methylpyrrolidin-2-yl]methoxy]-6,8-dihydro-5H-pyrido[3,4-d]pyrimidin-4-yl]-1-prop-2-enoyl-piperazin-2-yl]acetonitrile]

Reference: patent US10689377B2 (Mirati Therapeutics, Inc., priority 2017, dated 2020)
